Patent publication US20090253658A1, “Fat Accumulation Inhibitor” (priority 2006, published 2009)

Tests used:
visceral fat = test: Inhibition of visceral fat accumulation (high fat feed animal test, dissection on 8th week); format: in vivo
Method: Using the sphingomyelin obtained in Example 7, an action of inhibition of visceral fat accumulation was verified. An animal test was carried out using 8 animals per group by a group in which a high fat feed blended with sphingomyelin was fed (sphingomyelin diet group) and a group in which a high fat feed not blended with sphingomyelin was fed (high fat diet group). In the animal test, the high fat feed was provided until the 4th week after rearing, and thereafter the group was divided into 5 groups, and the high fat feed or sphingomyelin-blended high fat feed was provided until the 8th week. By carrying out dissection on the 8th week, the amount of visceral fats (mesenteric, peri-testicular, perirenal, posterior abdominal) was measured.

[1] = system: adiponectin concentration in blood; test: Acceleration of increase and/or inhibition of decrease of adiponectin concentration in blood (high fat feed animal test, ELISA); format: in vivo
Method: Using the sphingomyelin obtained in Example 7, an action of acceleration of increase and/or inhibition of decrease of an adiponectin concentration in blood was verified. An animal test was carried out using 8 animals per group by a group in which a high fat feed blended with sphingomyelin was fed (sphingomyelin diet group) and a group in which a high fat feed not blended with sphingomyelin was fed (high fat diet group). The high fat diet was prepared using a milk casein as a protein source and a butter oil as a lipid source. In the animal test, a feed was provided until the 4th week after rearing, and thereafter the group was divided into 5 groups, and the high fat feed or sphingomyelin-blended high fat feed was provided until the 8th week. Blood collection was carried out on the 4th week and on the 8th week, and an adiponectin concentration in blood was measured using a Mouse/Rat Adiponectin ELISA Kit (manufactured by Otsuka Pharmaceutical Co., Ltd.).

## sphingomyelin [Sphingomyelin (Example 7)]
Visceral fat; dissection on the 8th week
  Amount of visceral fat, Mesenteric: 2.19 g
  Amount of visceral fat, Perirenal: 0.74 g
  Amount of visceral fat, peri-testicular: 3.22 g
  Amount of visceral fat, posterior abdominal: 2.11 g
Visceral fat; in comparison with the high fat diet group
  Amount of visceral fat (in words): low values
[1]; 4th to 8th week, decreases in the high fat diet group
  Adiponectin concentration in blood with the lapse of time (in words): increases
[1]; 4 weeks (before start of sphingomyelin-blended high fat feed)
  Adiponectin concentration in blood: 10.88 µg/mL
[1]; 8 weeks (sphingomyelin-blended high fat feed from 4th to 8th week)
  Adiponectin concentration in blood: 15.65 µg/mL
